Measured values: BindingDB's records for doi:10.1016/j.bmc.2013.11.045 (Northern Kentucky University, 2013)

Experiment: Inhibition of aromatase in human MCF7 cells

Structure (SMILES)	IC50 [µM]
O=C1c2ccccc2OCC1c1ccc(Oc2ccccc2)cc1 (configuration not stated)	17
O=C1c2ccccc2OCC1c1cccnc1 (configuration not stated)	44
